Data: paper PMC5803267, “A small molecule inhibitor of Rheb selectively targets mTORC1 signaling” (Nature Communications, 2018)
Entries after “also recorded” stand apart in the source; their conditions may differ.

What was measured:
[1] = tested on: mTORC1 activity (S240/244pS6) in kidney; test: PD study: feeding-induced mTORC1 activation in kidney; format: in vivo, mouse; settings: mice fasted 16 h, 30 mg kg^−1 IP, re-fed 2 h
Method: The selective inhibition of mTORC1 activation by NR1 in vitro and in cell-based systems prompted us to evaluate the effect of this compound on mTORC1 activity in vivo. […] In particular, the plasma concentration of NR1 was sustained over 5 µM for 2 h after IP administration of a 30 mg kg^−1 dose (Supplementary Fig. 10). We therefore carried out a pharmacodynamic (PD) study to evaluate the efficacy of NR1 at inhibiting mTORC1 signaling in vivo. In this experiment, mice were starved overnight to achieve a low basal level of mTORC1 activation (pre-dose). After a 16 h fast, the animals were treated with either vehicle or 30 mg kg^−1 NR1 and allowed to re-feed for 2 h before sacrifice and tissue collection. mTORC1 activity was measured by quantification of ^S240/244pS6 by Western blot analysis with a specific antibody. […]
This study was conducted in accordance with the requirements for the humane care and use of animals set forth in the Animal Welfare Act, the IACUC Guide for the Care and Use of Laboratory Animals, applicable Shanghai and state laws, and regulations and policies of Shanghai ChemPartner Ltd. The animals were not randomized, and the study was not blinded. […] Compound levels in the plasma of treated mice were measured by LC-MS/MS and compared to a standard curve of compound diluted into mouse plasma. […]

[2] = tested on: Rap1; test: Rap1 in vitro activity assay (GST-RalGDS-RBD pulldown from lysates); format: biochemical, human; settings: lysates loaded with GDP or GTPγS, compound 30 min
Method: MCF-7 cells were serum-starved for 16 h and treated with compound for 90 min before cell lysis and Western blot analysis. For insulin-stimulated cells, 100 nM insulin was added 30 min before cell lysis. For EGF-stimulated cells, 100 ng mL^−1 EGF was added 10 min before cell lysis. c Rap1 activity was detected in lysates loaded in vitro with either GDP or GTPγS and treated with NR1 at the indicated concentrations. This was followed by a subsequent pulldown of GST-RalGDS-RBD. Bound Rap1 was detected by Western blot. d Evaluation of NR1 in a LAM patient-derived cell line (TRI102) under replete and serum-starved conditions. For replete conditions, TRI102 cells were treated for 90 min with compound in DMEM + 10% FBS. For serum-starved conditions, TRI102 cells were serum-starved 16 h and then treated for 90 min with compound prior to cell lysis and Western blot analysis. e HEK293 cells co-transfected with the indicated mTOR constructs and HA-GST-S6K1 were starved of amino acids or treated with NR1. To assess mTORC1 activity, an HA IP was performed and Western blots probed for ^T389pS6K1. f Chronic treatment of PC3 cells with NR1 to evaluate the inhibition of mTORC1 (using ^T389pS6K1) versus mTORC2 (using ^S473pAKT). PC3 cells were treated with compound under replete conditions for 24 h prior to cell lysis and Western blot analysis. […]

[3] = biological target: T1, recombinant human mTOR (Homo sapiens, UniProt P42345); test: Rheb-independent mTOR in vitro kinase assay (HotSpot, radiometric); format: biochemical; settings: up to a concentration of 30 µM
T1 construct: GST (N); host or cells: insect cells
T1 sequence (P42345 1360-2549): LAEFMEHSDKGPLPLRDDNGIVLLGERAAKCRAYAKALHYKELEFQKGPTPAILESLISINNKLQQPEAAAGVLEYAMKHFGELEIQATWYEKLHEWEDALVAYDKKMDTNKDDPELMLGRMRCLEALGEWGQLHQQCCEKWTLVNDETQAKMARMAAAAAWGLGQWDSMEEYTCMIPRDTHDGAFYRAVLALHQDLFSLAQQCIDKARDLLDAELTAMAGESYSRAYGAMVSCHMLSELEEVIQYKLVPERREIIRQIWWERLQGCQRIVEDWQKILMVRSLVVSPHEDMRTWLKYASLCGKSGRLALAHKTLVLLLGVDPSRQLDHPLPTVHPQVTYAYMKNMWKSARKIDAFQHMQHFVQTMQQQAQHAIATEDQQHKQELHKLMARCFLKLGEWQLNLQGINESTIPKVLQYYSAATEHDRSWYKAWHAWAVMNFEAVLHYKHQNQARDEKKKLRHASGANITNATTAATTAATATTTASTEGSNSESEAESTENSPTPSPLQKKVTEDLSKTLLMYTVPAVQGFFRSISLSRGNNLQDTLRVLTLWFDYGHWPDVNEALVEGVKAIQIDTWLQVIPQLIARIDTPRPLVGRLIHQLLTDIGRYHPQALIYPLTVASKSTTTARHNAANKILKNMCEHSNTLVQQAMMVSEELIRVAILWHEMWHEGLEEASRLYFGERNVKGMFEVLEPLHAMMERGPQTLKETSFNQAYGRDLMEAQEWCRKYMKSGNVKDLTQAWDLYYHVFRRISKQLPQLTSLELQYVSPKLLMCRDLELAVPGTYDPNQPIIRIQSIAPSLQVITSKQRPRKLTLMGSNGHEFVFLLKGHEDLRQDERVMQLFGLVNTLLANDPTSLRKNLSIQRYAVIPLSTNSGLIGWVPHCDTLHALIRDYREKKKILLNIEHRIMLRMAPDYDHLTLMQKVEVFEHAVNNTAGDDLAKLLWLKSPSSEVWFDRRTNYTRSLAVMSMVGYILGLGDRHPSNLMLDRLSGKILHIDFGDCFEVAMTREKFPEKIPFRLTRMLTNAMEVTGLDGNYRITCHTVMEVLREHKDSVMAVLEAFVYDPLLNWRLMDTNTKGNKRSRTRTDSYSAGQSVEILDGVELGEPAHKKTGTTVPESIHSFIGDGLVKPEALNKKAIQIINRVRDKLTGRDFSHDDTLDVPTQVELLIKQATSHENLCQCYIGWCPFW

[4] = biological target: Rheb (Homo sapiens, UniProt Q15382); test: Affinity selection mass spectrometry (ASMS) Rheb binding; settings: result in words
Chain of Rheb (Q15382 whole entry): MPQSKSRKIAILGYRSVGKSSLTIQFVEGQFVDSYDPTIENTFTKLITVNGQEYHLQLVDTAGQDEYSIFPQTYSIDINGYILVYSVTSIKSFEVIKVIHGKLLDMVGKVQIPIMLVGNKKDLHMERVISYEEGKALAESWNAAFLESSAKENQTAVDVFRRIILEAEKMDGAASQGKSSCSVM
Text: We used both Rheb binding and functional activity to guide the SAR optimization. Due to its high sensitivity and ability to detect weak binding ligands, STD NMR was initially used to measure Rheb binding. In addition to the benzimidazole of 1, we also explored the related indole scaffold, which allowed a wider range of functionalization. […] Therefore, we also used affinity selection mass spectrometry (ASMS) as a semi-quantitative measure of Rheb binding.

CN(C)C(=O)c1ccc(Cn2c(C(=O)O)cc3c(Br)cc(Sc4ccc(Cl)c(Cl)c4)cc32)cc1 [NR1, 4-bromo-6-(3,4-dichlorophenylthio)-1-(4-(dimethylcarbamoyl)benzyl)-1H-indole-2-carboxylic acid]
mTORC1 activity (S240/244pS6) in kidney versus vehicle [1]: significantly reduced mTORC1 activity
effect on activity of Rap1 in vitro [2]: no impact on the activity of Rap1; also recorded: did not affect the activity of Rap1
inhibitory activity in HotSpot [3]: no inhibitory activity
Rheb binding by ASMS [4]: significant affinity
